# According to patent publication US20190307843A1, “SINGLE DOSE METHODS FOR PREVENTING AND TREATING FUNGAL INFECTIONS” (Cidara Therapeutics, Inc., priority 2016, published 2019):
# Where “and” joins values, the source holds several entries; their conditions need not be identical. Equal values may be shown once. Starred links: 1 amine or outer side, 2 acyl side, 3 side chain; linkers in the order of their positions; H or OH if unused. Positions of bridges follow the written chain, without caps; N, C: chain ends. Non-standard residues stand in square brackets, D forms with d. Residues, ends and D or L forms follow the SMILES beside them. *: point of attachment. Orn(4R-OH,5R-OCH2CH2NMe3+) = C[N+](C)(C)CCO[C@@H](N[*:3])[C@H](O)C[C@H](N[*:1])C(=O)[*:2]; pTerphenylCO(4''-OnC5H11) = CCCCCOc1ccc(-c2ccc(-c3ccc(C(=O)*)cc3)cc2)cc1; hTyr(3S-OH,4S-OH) = N[C@H](C(=O)O)[C@H](O)[C@@H](O)c1ccc(O)cc1; Pro(3S-OH,4S-Me) = C[C@H]1CN[C@H](C(=O)O)[C@H]1O; Hyp = O=C(O)[C@@H]1C[C@@H](O)CN1
# Key:
# [1] = Monkey SC local tolerability study; assay type: in vivo, cynomolgus monkey
# Method: (§1) Previous toxicology studies by the IV route of administration conducted in cynomolgus monkeys have shown CD101 to be safe and well tolerated at up to at least 30 mg/kg, which generates very high systemic exposures upon initial infusion of CD101 into the bloodstream. Therefore, only local tolerability (and PK) of CD101 by SC administration required evaluation. […] Plasma concentrations were then quantified by liquid chromatography with tandem mass spectrometric detection (LC-MS/MS). Bioavailability from SC dosing was calculated by comparing the calculated area under the concentration-time profile (AUC) from SC against the AUC from IV administration of the same dose.
# Therefore, a separate study was designed to evaluate the tolerability of a SC dose of CD101 as a highly concentrated solution (100 mg/mL; 30 mg/kg) in two cynomolgus monkeys. […] The drug reaches a maximum concentration within a few hours then remains nearly constant over the course of 10 days.
# [2] = Previous toxicology studies by the IV route; assay type: in vivo, cynomolgus monkey
# Method: as §1
# Candida albicans (R357) = test: Neutropenic mouse model of azole-resistant candidiasis, kidney CFU; assay type: in vivo; settings: CD101 3 mg/kg single IP dose, 72 hours
# [3] = Single-dose plasma pharmacokinetics in mice, IP; assay type: in vivo, mouse; settings: IP doses of 1, 4, 16, and 64 mg/kg
# Method: Plasma from groups of three mice per time point (1, 3, 6, 12, 24, 48, and 72-h) was collected. The plasma drug concentrations were determined by liquid chromatography-tandem mass spectrometry. A noncompartmental model was used in the pharmacokinetic analysis. Elimination half-life was calculated by nonlinear least-squares technique. The area under the concentration-time curve (AUC) was calculated by the trapezoidal rule. Pharmacokinetic exposures for doses not directly measured in the PK study were estimated by linear extrapolation for higher and lower dose levels and by interpolation for dose levels within the dose range studied given the linear PK results.
# [4] = Protein binding by ultracentrifugation, human plasma; assay type: in vitro ADME
# Method: Concentrations in plasma ranging from 7 to 60 μg/mL were tested and resulting samples were analyzed by LC-MS/MS.
# invasive candidiasis = test: Human subject with invasive candidiasis, single subcutaneous dose (Example 3); assay type: in vivo; settings: single dose of 50-1200 mg acetate salt of CD101, subcutaneous injection
# Method: A human subject is diagnosed with invasive candidiasis using standard diagnostic procedures. The subject receives treatment with a single dose of 50-1200 mg (e.g., 75±25 mg, 100±25 mg, 150±50 mg, 200±50 mg, 250±50 mg, 300±50 mg, 350±50 mg, 400±50 mg, 450±50 mg, 500±100 mg, 600±100 mg, 700±100 mg, 800±100 mg, 900±50 mg, 1000 mg±100 mg, or 1100±100 mg) of the acetate salt of CD101 administered by subcutaneous injection. No other antifungal treatment is provided to the subject within one to three weeks before or after administration of the single dose CD101 treatment.
# C. albicans = test: Neutropenic murine disseminated candidiasis model, PK/PD targets, C. albicans
# C. glabrata = test: Neutropenic murine disseminated candidiasis model, PK/PD targets, C. glabrata
# [5] = C. albicans, Median of 4 strains
# [6] = C. glabrata, Median of 3 strains
smiles,measurement,setting,value
"CCCCCOc1ccc(-c2ccc(-c3ccc(C(=O)N[C@H]4C[C@@H](O)[C@@H](OCC[N+](C)(C)C)NC(=O)[C@@H]5[C@@H](O)[C@@H](C)CN5C(=O)[C@H]([C@@H](C)O)NC(=O)[C@H]([C@H](O)[C@@H](O)c5ccc(O)cc5)NC(=O)[C@@H]5C[C@@H](O)CN5C(=O)[C@H]([C@@H](C)O)NC4=O)cc3)cc2)cc1 [CD101] ({pTerphenylCO(4''-OnC5H11)}-[Orn(4R-OH,5R-OCH2CH2NMe3+)]T[Hyp][hTyr(3S-OH,4S-OH)]T[Pro(3S-OH,4S-Me)]; lactam 1-C)",irritation or local (injection site) adverse toxicity,[1]; single 30 mg/kg SC (100 mg/mL),no sign of irritation or local (injection site) adverse toxicity
same,bodyweight or food consumption,"[1]; single 30 mg/kg SC, 10 days after administration",no effect on bodyweight or food consumption
same,dose safe and well tolerated,[2],at least 30 mg/kg
same,reduction in C. albicans CFU compared with vehicle,Candida albicans (R357),> 3 log
same,elimination half-life,[3],29 to 41 h
same,half-life,"[3]; mouse, plasma, ip, 64 mg/kg, read-out: elimination half-life",28 to 41 h
same,AUC(0-inf),"[3]; mouse, plasma",93.2 to 40500 µg·h/mL
same,Cmax,"[3]; mouse, plasma, read-out: Peak (Cmax) levels",2600 to 76700 ng/mL
same,free fraction in human vs mouse plasma,[4],~3 ×
same,"percent of bound CD101, mean",[4]; human plasma,97.4%
same,invasive candidiasis infection at follow-up visit,invasive candidiasis,confirmed to be resolved
same,1 log kill 24 h Ave Free drug AUC/MIC,C. albicans; C. albicans 98-17,3.92
same,1 log kill dose,C. albicans; C. albicans 98-17,2.73 mg/kg
same,1 log kill free drug AUC0-168h/MIC,C. albicans; C. albicans 98-17,27.47
same,1 log kill total drug AUC0-168h/MIC,C. albicans; C. albicans 98-17,3433.40
same,Stasis 24 h Ave free drug AUC/MIC,C. albicans; C. albicans 98-17,2.19
same,Stasis free drug AUC0-168h/MIC,C. albicans; C. albicans 98-17,15.35
same,Stasis total drug AUC0-168h/MIC,C. albicans; C. albicans 98-17,1918.43
same,Static dose,C. albicans; C. albicans 98-17,1.34 mg/kg
same,1 log kill 24 h Ave Free drug AUC/MIC,C. albicans; C. albicans 98-210,6.72
same,1 log kill dose,C. albicans; C. albicans 98-210,2.28 mg/kg
same,1 log kill free drug AUC0-168h/MIC,C. albicans; C. albicans 98-210,47.01
same,1 log kill total drug AUC0-168h/MIC,C. albicans; C. albicans 98-210,5875.95
same,Stasis 24 h Ave free drug AUC/MIC,C. albicans; C. albicans 98-210,3.70
same,Stasis free drug AUC0-168h/MIC,C. albicans; C. albicans 98-210,25.93
same,Stasis total drug AUC0-168h/MIC,C. albicans; C. albicans 98-210,3241.65
same,Static dose,C. albicans; C. albicans 98-210,1.06 mg/kg
same,1 log kill 24 h Ave Free drug AUC/MIC,C. albicans; C. albicans 580,3.05
same,1 log kill dose,C. albicans; C. albicans 580,2.03 mg/kg
same,1 log kill free drug AUC0-168h/MIC,C. albicans; C. albicans 580,21.34
same,1 log kill total drug AUC0-168h/MIC,C. albicans; C. albicans 580,2667.21
same,Stasis 24 h Ave free drug AUC/MIC,C. albicans; C. albicans 580,2.02
same,Stasis free drug AUC0-168h/MIC,C. albicans; C. albicans 580,14.15
same,Stasis total drug AUC0-168h/MIC,C. albicans; C. albicans 580,1769.30
same,Static dose,C. albicans; C. albicans 580,1.20 mg/kg
same,1 log kill 24 h Ave Free drug AUC/MIC,C. albicans; C. albicans K-1,6.86
same,1 log kill dose,C. albicans; C. albicans K-1,5.26 mg/kg
same,1 log kill free drug AUC0-168h/MIC,C. albicans; C. albicans K-1,48.05
same,1 log kill total drug AUC0-168h/MIC,C. albicans; C. albicans K-1,6005.95
same,Stasis 24 h Ave free drug AUC/MIC,C. albicans; C. albicans K-1,3.65
same,Stasis free drug AUC0-168h/MIC,C. albicans; C. albicans K-1,25.58
same,Stasis total drug AUC0-168h/MIC,C. albicans; C. albicans K-1,3197.16
same,Static dose,C. albicans; C. albicans K-1,2.52 mg/kg
same,1 log kill 24 h Ave Free drug AUC/MIC,"C. albicans; C. albicans, Mean of 4 strains",5.14
same,1 log kill dose,"C. albicans; C. albicans, Mean of 4 strains",3.08 mg/kg
same,1 log kill free drug AUC0-168h/MIC,"C. albicans; C. albicans, Mean of 4 strains",35.97
same,1 log kill total drug AUC0-168h/MIC,"C. albicans; C. albicans, Mean of 4 strains",4495.63
same,Stasis 24 h Ave free drug AUC/MIC,"C. albicans; C. albicans, Mean of 4 strains",2.89
same,Stasis free drug AUC0-168h/MIC,"C. albicans; C. albicans, Mean of 4 strains",20.25
same,Stasis total drug AUC0-168h/MIC,"C. albicans; C. albicans, Mean of 4 strains",2531.64
same,Static dose,"C. albicans; C. albicans, Mean of 4 strains",1.53 mg/kg
same,1 log kill 24 h Ave Free drug AUC/MIC,C. albicans; [5],5.32
same,1 log kill dose,C. albicans; [5],2.51 mg/kg
same,1 log kill free drug AUC0-168h/MIC,C. albicans; [5],37.24
same,1 log kill total drug AUC0-168h/MIC,C. albicans; [5],4654.68
same,Stasis 24 h Ave free drug AUC/MIC,C. albicans; [5],2.92
same,Stasis free drug AUC0-168h/MIC,C. albicans; [5],20.5 and 20.46
same,Stasis total drug AUC0-168h/MIC,C. albicans; [5],2557.79
same,Static dose,C. albicans; [5],1.27 mg/kg
same,kill at high doses,"C. albicans; C. albicans, a number of strains",> 2 log10
same,1 log kill 24 h Ave Free drug AUC/MIC,C. glabrata; C. glabrata 5592,0.36
same,1 log kill dose,C. glabrata; C. glabrata 5592,0.43 mg/kg
same,1 log kill free drug AUC0-168h/MIC,C. glabrata; C. glabrata 5592,2.54
same,1 log kill total drug AUC0-168h/MIC,C. glabrata; C. glabrata 5592,317.50
same,Stasis 24 h Ave free drug AUC/MIC,C. glabrata; C. glabrata 5592,0.05
same,Stasis free drug AUC0-168h/MIC,C. glabrata; C. glabrata 5592,0.35
same,Stasis total drug AUC0-168h/MIC,C. glabrata; C. glabrata 5592,43.16
same,Static dose,C. glabrata; C. glabrata 5592,0.06 mg/kg
same,1 log kill 24 h Ave Free drug AUC/MIC,C. glabrata; C. glabrata 10956,1.20
same,1 log kill dose,C. glabrata; C. glabrata 10956,17.25 mg/kg
same,1 log kill free drug AUC0-168h/MIC,C. glabrata; C. glabrata 10956,8.42
same,1 log kill total drug AUC0-168h/MIC,C. glabrata; C. glabrata 10956,1052.22
same,Stasis 24 h Ave free drug AUC/MIC,C. glabrata; C. glabrata 10956,0.48
same,Stasis free drug AUC0-168h/MIC,C. glabrata; C. glabrata 10956,3.35
same,Stasis total drug AUC0-168h/MIC,C. glabrata; C. glabrata 10956,418.68
same,Static dose,C. glabrata; C. glabrata 10956,6.29 mg/kg
same,1 log kill 24 h Ave Free drug AUC/MIC,C. glabrata; C. glabrata 35315,0.42
same,1 log kill dose,C. glabrata; C. glabrata 35315,2.39 mg/kg
same,1 log kill free drug AUC0-168h/MIC,C. glabrata; C. glabrata 35315,2.94
same,1 log kill total drug AUC0-168h/MIC,C. glabrata; C. glabrata 35315,367.06
same,Stasis 24 h Ave free drug AUC/MIC,C. glabrata; C. glabrata 35315,0.07
same,Stasis free drug AUC0-168h/MIC,C. glabrata; C. glabrata 35315,0.50
same,Stasis total drug AUC0-168h/MIC,C. glabrata; C. glabrata 35315,62.50
same,Static dose,C. glabrata; C. glabrata 35315,0.34 mg/kg
same,1 log kill 24 h Ave Free drug AUC/MIC,"C. glabrata; C. glabrata, Mean of 3 strains",0.66
same,1 log kill dose,"C. glabrata; C. glabrata, Mean of 3 strains",6.69 mg/kg
same,1 log kill free drug AUC0-168h/MIC,"C. glabrata; C. glabrata, Mean of 3 strains",4.63
same,1 log kill total drug AUC0-168h/MIC,"C. glabrata; C. glabrata, Mean of 3 strains",578.93
same,Stasis 24 h Ave free drug AUC/MIC,"C. glabrata; C. glabrata, Mean of 3 strains",0.20
same,Stasis free drug AUC0-168h/MIC,"C. glabrata; C. glabrata, Mean of 3 strains",1.40
same,Stasis total drug AUC0-168h/MIC,"C. glabrata; C. glabrata, Mean of 3 strains",174.78
same,Static dose,"C. glabrata; C. glabrata, Mean of 3 strains",2.23 mg/kg
same,1 log kill 24 h Ave Free drug AUC/MIC,C. glabrata; [6],0.42
same,1 log kill dose,C. glabrata; [6],2.39 mg/kg
same,1 log kill free drug AUC0-168h/MIC,C. glabrata; [6],2.94
same,1 log kill total drug AUC0-168h/MIC,C. glabrata; [6],367.06
same,Stasis 24 h Ave free drug AUC/MIC,C. glabrata; [6],0.07
same,Stasis free drug AUC0-168h/MIC,C. glabrata; [6],0.5
same,Stasis total drug AUC0-168h/MIC,C. glabrata; [6],62.50
same,Static dose,C. glabrata; [6],0.34 mg/kg
same,kill at high doses,"C. glabrata; C. glabrata, a number of strains",> 2 log10
